Results as given in PubChem BioAssay (NCI).
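Briefly, cells in 96-well plates were exposed to five compound concentrations for 48 h, and endpoints were estimated by linear interpolation. TGI: concentration producing complete growth inhibition.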

Tests used:
Assay in all cases: NCI tumour cell line growth inhibition, 48 h
HCT-15 colon = tested on: HCT-15 colon
SN12C renal = tested on: SN12C renal
RXF 393 renal = tested on: RXF 393 renal
NCI-H23 lung = tested on: NCI-H23 lung
NCI-H460 lung = tested on: NCI-H460 lung
SF-539 CNS = tested on: SF-539 CNS
NCI-H522 lung = tested on: NCI-H522 lung
HT29 colon = tested on: HT29 colon
XF 498 CNS = tested on: XF 498 CNS
HOP-62 NSCLC = tested on: HOP-62 NSCLC
SNB-78 CNS = tested on: SNB-78 CNS
OVCAR-5 ovarian = tested on: OVCAR-5 ovarian
SF-295 CNS = tested on: SF-295 CNS
SK-MEL-28 melanoma = tested on: SK-MEL-28 melanoma
UACC-257 melanoma = tested on: UACC-257 melanoma
HCT-116 colon = tested on: HCT-116 colon
786-0 renal = tested on: 786-0 renal
IGROV1 ovarian = tested on: IGROV1 ovarian
EKVX NSCLC = tested on: EKVX NSCLC
A498 renal = tested on: A498 renal
A549 NSCLC = tested on: A549 NSCLC
ACHN renal = tested on: ACHN renal
M14 melanoma = tested on: M14 melanoma
SF-268 CNS = tested on: SF-268 CNS
NCI-H226 lung = tested on: NCI-H226 lung
M19-MEL melanoma = tested on: M19-MEL melanoma
KM12 colon = tested on: KM12 colon
LXFL 529 NSCLC = tested on: LXFL 529 NSCLC
SNB-75 CNS = tested on: SNB-75 CNS
SNB-19 CNS = tested on: SNB-19 CNS
SK-OV-3 ovarian = tested on: SK-OV-3 ovarian
SR leukemia = tested on: SR leukemia
U251 CNS = tested on: U251 CNS
OVCAR-8 ovarian = tested on: OVCAR-8 ovarian
TK-10 renal = tested on: TK-10 renal
DLD-1 colon = tested on: DLD-1 colon
MALME-3M melanoma = tested on: MALME-3M melanoma
HCC-2998 colon = tested on: HCC-2998 colon
RPMI-8226 leukemia = tested on: RPMI-8226 leukemia
KM20L2 colon = tested on: KM20L2 colon
RXF-631 renal = tested on: RXF-631 renal
K-562 leukemia = tested on: K-562 leukemia
SK-MEL-5 melanoma = tested on: SK-MEL-5 melanoma
SK-MEL-2 melanoma = tested on: SK-MEL-2 melanoma
UO-31 renal = tested on: UO-31 renal
HOP-18 NSCLC = tested on: HOP-18 NSCLC
SW-620 colon = tested on: SW-620 colon

Measured: TGI

Cc1ccc(C2=C(c3ccccc3)C(O)(c3ccccc3)C(c3ccccc3)=C2c2ccc(C)cc2)cc1
> 100 µM: HCT-15 colon | SN12C renal | RXF 393 renal | NCI-H23 lung | NCI-H460 lung | SF-539 CNS | NCI-H522 lung | HT29 colon | XF 498 CNS | HOP-62 NSCLC | SNB-78 CNS | OVCAR-5 ovarian | SF-295 CNS | SK-MEL-28 melanoma | UACC-257 melanoma | HCT-116 colon | 786-0 renal | IGROV1 ovarian | EKVX NSCLC | A498 renal | A549 NSCLC | ACHN renal | M14 melanoma | SF-268 CNS | NCI-H226 lung | M19-MEL melanoma | KM12 colon | LXFL 529 NSCLC | SNB-75 CNS | SNB-19 CNS | SK-OV-3 ovarian | SR leukemia | U251 CNS | OVCAR-8 ovarian | TK-10 renal | DLD-1 colon | MALME-3M melanoma | HCC-2998 colon | RPMI-8226 leukemia | KM20L2 colon | RXF-631 renal | K-562 leukemia | SK-MEL-5 melanoma | SK-MEL-2 melanoma | UO-31 renal | HOP-18 NSCLC | SW-620 colon
